Reference: PubChem BioAssay AID330 (DTP/NCI, 2004)
Where “and” joins values, the source holds several entries; their conditions need not be identical. Equal values may be shown once. Toxic doses and inconclusive results are not listed. Rule for the calls: active = survival T/C of 150% or more; inactive = T/C below 125% in these data.

Tested on: P388 leukemia ip, CD2F1 mice, survival T/C
Assay: NCI In Vivo Anticancer Drug Screen. Data for tumor model P388 Leukemia (intraperitoneal) in CD2F1 (CDF1) mice
Settings: endpoint: median survival time, higher = longer survival
Procedure, shortened: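 Mice carrying the transplanted tumor received test compound or vehicle. Survival was recorded in each group, and the value is the treated-group measurement divided by that of the vehicle-treated control group.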

[1] = dose: 50.0 mg/kg/injection, schedule: Q01DX009 (ip), vehicle: Klucel (hydroxypropylcellulose) (HPC)
[2] = dose: 100.0 mg/kg/injection, schedule: Q01DX009 (ip), vehicle: Klucel (hydroxypropylcellulose) (HPC)
[3] = dose: 200.0 mg/kg/injection, schedule: Q01DX009 (ip), vehicle: Klucel (hydroxypropylcellulose) (HPC)
[4] = dose: 12.5 mg/kg/injection, schedule: Q01DX009 (ip), vehicle: saline with Tween-80
[5] = dose: 25.0 mg/kg/injection, schedule: Q01DX009 (ip), vehicle: saline with Tween-80
[6] = dose: 60.0 mg/kg/injection, schedule: Q01DX005 (ip), vehicle: saline with Tween-80
[7] = dose: 120.0 mg/kg/injection, schedule: Q01DX005 (ip), vehicle: saline with Tween-80
[8] = dose: 240.0 mg/kg/injection, schedule: Q01DX005 (ip), vehicle: saline with Tween-80
[9] = dose: 50.0 mg/kg/injection, schedule: Q01DX009 (ip), vehicle: saline with Tween-80
[10] = dose: 100.0 mg/kg/injection, schedule: Q01DX009 (ip), vehicle: saline with Tween-80
[11] = dose: 200.0 mg/kg/injection, schedule: Q01DX009 (ip), vehicle: saline with Tween-80
[12] = dose: 12.5 mg/kg/injection, schedule: Q01DX009 (ip), vehicle: Klucel (hydroxypropylcellulose) (HPC)
[13] = dose: 25.0 mg/kg/injection, schedule: Q01DX009 (ip), vehicle: Klucel (hydroxypropylcellulose) (HPC)
[14] = dose: 100.0 mg/kg/injection, schedule: Q04DX003 (ip), vehicle: Klucel (hydroxypropylcellulose) (HPC)
[15] = dose: 200.0 mg/kg/injection, schedule: Q04DX003 (ip), vehicle: Klucel (hydroxypropylcellulose) (HPC)
[16] = dose: 400.0 mg/kg/injection, schedule: Q04DX003 (ip), vehicle: Klucel (hydroxypropylcellulose) (HPC)

Measured: T/C

NCCN1C(=O)c2ccccc2C1(O)c1ccc(Cl)cc1 (centres undefined)
inactive: [1] 102 % of control | [2] 97 % of control | [3] 98 % of control

COc1ccc2cc1-c1cc(ccc1O)CCC(O)CC1CCCC(CC(OC(C)=O)CC2)N1 (centres undefined)
inactive: dose: 15.0 mg/kg/injection, schedule: Q01DX009 (ip), vehicle: Klucel (hydroxypropylcellulose) (HPC) 107 % of control | dose: 30.0 mg/kg/injection, schedule: Q01DX009 (ip), vehicle: Klucel (hydroxypropylcellulose) (HPC) 100 % of control | dose: 60.0 mg/kg/injection, schedule: Q01DX009 (ip), vehicle: Klucel (hydroxypropylcellulose) (HPC) 100 % of control

Cn1c([N+](=O)[O-])cnc1/C=C1\CCc2cc(OCCN3CCCC3)ccc2C1=O
inactive: [4] 90 % of control | [5] 93 % of control

CCOC(=O)n1c2ccccc2c(=O)n1CCO
inactive: [6] 105 % of control | [7] 97 % of control | [8] 91 % of control

CC1OC1C(=O)Sc1ccccc1 (centres undefined)
inactive: dose: 12.5 mg/kg/injection, schedule: Q01DX009 (ip), vehicle: saline 105 % of control | dose: 25.0 mg/kg/injection, schedule: Q01DX009 (ip), vehicle: saline 110 % of control | dose: 50.0 mg/kg/injection, schedule: Q01DX009 (ip), vehicle: saline 106 % of control

COC(=O)C1(CC(=O)c2ccc(N3CCN(c4ccc(C(=O)CC5(C(=O)OC)NC(=S)NC(=O)C5C#N)cc4)CC3)cc2)NC(=S)NC(=O)C1C#N (centres undefined)
inactive: dose: 7.5 mg/kg/injection, schedule: Q01DX005 (ip), vehicle: Klucel (hydroxypropylcellulose) (HPC) 96 % of control | dose: 15.0 mg/kg/injection, schedule: Q01DX005 (ip), vehicle: Klucel (hydroxypropylcellulose) (HPC) 99 % of control | dose: 30.0 mg/kg/injection, schedule: Q01DX005 (ip), vehicle: Klucel (hydroxypropylcellulose) (HPC) 98 % of control and 92 % of control

CC1Cc2ccc3c(c2C(c2ccc4c(c2)OCO4)C1C)OCO3 (centres undefined)
inactive: dose: 60.0 mg/kg/injection, schedule: Q01DX005 (ip), vehicle: Klucel + Tween-80 103 % of control | dose: 120.0 mg/kg/injection, schedule: Q01DX005 (ip), vehicle: Klucel + Tween-80 97 % of control | dose: 240.0 mg/kg/injection, schedule: Q01DX005 (ip), vehicle: Klucel + Tween-80 86 % of control

CC(=O)c1cc(C)[nH]c1C
inactive: dose: 37.5 mg/kg/injection, schedule: Q01DX009 (ip), vehicle: Klucel (hydroxypropylcellulose) (HPC) 103 % of control | [9] 100 % of control | dose: 50.0 mg/kg/injection, schedule: Q04DX003 (ip), vehicle: saline with Tween-80 100 % of control | dose: 75.0 mg/kg/injection, schedule: Q01DX009 (ip), vehicle: Klucel (hydroxypropylcellulose) (HPC) 103 % of control | [10] 113 % of control | dose: 100.0 mg/kg/injection, schedule: Q04DX003 (ip), vehicle: saline with Tween-80 109 % of control | dose: 150.0 mg/kg/injection, schedule: Q01DX009 (ip), vehicle: Klucel (hydroxypropylcellulose) (HPC) 103 % of control | dose: 150.0 mg/kg/injection, schedule: Q01DX009 (ip), vehicle: saline with Tween-80 105 % of control | [11] 113 % of control | dose: 200.0 mg/kg/injection, schedule: Q04DX003 (ip), vehicle: saline with Tween-80 109 % of control

CNC(=O)OCC1(OC(=O)NC)OC(COC(=O)NC)(OC(=O)NC)C(OC(=O)NC)C1OC(=O)NC (centres undefined)
inactive: dose: 50.0 mg/kg/injection, schedule: Q01DX005 (ip), vehicle: saline 104 % of control | dose: 100.0 mg/kg/injection, schedule: Q01DX005 (ip), vehicle: saline 91 % of control | dose: 200.0 mg/kg/injection, schedule: Q01DX005 (ip), vehicle: saline 101 % of control

C[n+]1c2n(c3ccccc31)CCn1c-2[n+](C)c2ccccc21
inactive: [12] 100 % of control and 103 % of control and 117 % of control | [13] 102 % of control and 103 % of control (2×) | [1] 100 % of control and 120 % of control and 96 % of control

CC(C(=O)O)N1C(=O)C=CC1=O (centres undefined)
inactive: [4] 97 % of control | [5] 91 % of control

C[Si](C)(C)Cc1ccccc1C(=O)O
inactive: [6] 100 % of control | [7] 103 % of control | [8] 94 % of control

NC(=O)CCNC(=O)OCc1ccccc1
inactive: dose: 12.5 mg/kg/injection, schedule: Q01DX009 (ip), vehicle: distilled water + Tween-80 105 % of control | dose: 25.0 mg/kg/injection, schedule: Q01DX009 (ip), vehicle: distilled water + Tween-80 103 % of control | dose: 50.0 mg/kg/injection, schedule: Q01DX009 (ip), vehicle: distilled water + Tween-80 103 % of control | dose: 100.0 mg/kg/injection, schedule: Q01DX009 (ip), vehicle: distilled water + Tween-80 104 % of control | dose: 200.0 mg/kg/injection, schedule: Q01DX009 (ip), vehicle: distilled water + Tween-80 100 % of control

CCCCOC(=O)CNCC(=O)OCCCC
inactive: [6] 100 % of control | [7] 101 % of control | [8] 104 % of control

O=C(CBr)N1c2ccccc2Sc2c1ccc1ccccc21
inactive: dose: 6.25 mg/kg/injection, schedule: Q01DX009 (ip), vehicle: Klucel (hydroxypropylcellulose) (HPC) 86 % of control | [12] 111 % of control | [13] 117 % of control | [1] 117 % of control | dose: 50.0 mg/kg/injection, schedule: Q04DX003 (ip), vehicle: Klucel (hydroxypropylcellulose) (HPC) 99 % of control and 114 % of control | [2] 120 % of control | [14] 99 % of control and 113 % of control and 120 % of control | [3] 120 % of control | [15] 101 % of control and 120 % of control and 87 % of control | [16] 106 % of control and 123 % of control

COC(C)(C)c1ccc(C)c(O)c1
inactive: dose: 4.38 mg/kg/injection, schedule: Q01DX005 (ip), vehicle: Klucel (hydroxypropylcellulose) (HPC) 96 % of control | dose: 8.75 mg/kg/injection, schedule: Q01DX005 (ip), vehicle: Klucel (hydroxypropylcellulose) (HPC) 95 % of control | dose: 17.5 mg/kg/injection, schedule: Q01DX005 (ip), vehicle: Klucel (hydroxypropylcellulose) (HPC) 92 % of control | dose: 35.0 mg/kg/injection, schedule: Q01DX005 (ip), vehicle: Klucel (hydroxypropylcellulose) (HPC) 91 % of control

NNC(=O)C(=O)NNC1CCCCC1
inactive: [2] 101 % of control | [3] 104 % of control

CCCC(C)C1(CC)C(=O)N(CCCl)C(=O)N(CCCl)C1=O (centres undefined)
inactive: [9] 93 % of control | [10] 99 % of control | [11] 93 % of control

O=C(OCc1ccccc1)C(Cc1c[nH]c2ccccc12)n1cnc2ccccc2c1=O (centres undefined)
inactive: dose: 12.5 mg/kg/injection, schedule: Q01DX005 (ip), vehicle: Klucel (hydroxypropylcellulose) (HPC) 97 % of control | dose: 25.0 mg/kg/injection, schedule: Q01DX005 (ip), vehicle: Klucel (hydroxypropylcellulose) (HPC) 97 % of control | dose: 50.0 mg/kg/injection, schedule: Q01DX005 (ip), vehicle: Klucel (hydroxypropylcellulose) (HPC) 96 % of control

CNc1ccc(F)cc1SSc1cc(F)ccc1NC
inactive: [13] 108 % of control | [1] 110 % of control | [2] 115 % of control

O=C(SC(O)c1ccc([N+](=O)[O-])cc1)c1ccccc1 (centres undefined)
inactive: [14] 101 % of control | [15] 106 % of control | [16] 101 % of control

CC(C)[C@H]1OC(=O)C=C2[C@@]13O[C@@H]3[C@H]1OC(=O)[C@]3(C)C1[C@]2(C)CC[C@@H]3O (some centres undefined)
inactive: dose: 1.0 mg/kg/injection, schedule: Q01DX009 (ip), vehicle: saline with Tween-80 101 % of control | dose: 40.0 mg/kg/injection, schedule: Q01DX009 (ip), vehicle: saline with Tween-80 105 % of control
